Here are results for 9 compounds from US11807644B2 (PMV Pharmaceuticals, Inc., priority 2020, dated 2023).

SMILES strings stand for the structures.

The test addresses T1, recombinant His-tag Y220C p53 DBD protein (Homo sapiens, UniProt P04637, Y220C).
T1 construct: recombinant His-tag Y220C p53 DBD protein (amino acids #˜94-312)
Description: In vitro DNA binding activity assay (TR-FRET): binding of His-tag Y220C p53 DBD to biotin-labeled consensus DNA. It is filed as biochemical. The settings on record: for Y220C SC150 (μM): SC150 = concentration to increase DNA binding by […], His-tag Y220C p53 DBD, biotin-labeled consensus DNA. (In general: In TR-FRET formats the signal depends on donor and acceptor labels being close together.)

As for `COCC(C)(C)n1cc(C(=O)NCc2nc(-c3cc4c(N[C@@H]5CCN(C)C[C@@H]5F)cccc4n3CC(F)(F)F)no2)cn1` [Compound 391B, N-{[3-(4-{[(3S,4R)-3-fluoro-1-methylpiperidin-4-yl]amino}-1-(2,2,2-trifluoroethyl)-1H-indol-2-yl)-1,2,4-oxadiazol-5-yl]methyl}-1-(1-methoxy-2-methylpropan-2-yl)-1H-pyrazole-4-carboxamide], the “Y220C SC150 (μM)” value is on record as “* (* = 0 μM ≤ SC150 < 0.1 μM)”.

Regarding `CN1CCC(Nc2cccc3c2cc(-c2ncc(CNC(=O)c4ccccc4)s2)n3CC(F)(F)F)CC1` [Compound 92B, N-[(2-{4-[(1-methylpiperidin-4-yl)amino]-1-(2,2,2-trifluoroethyl)-1H-indol-2-yl}-1,3-thiazol-5-yl)methyl]benzamide], the “Y220C SC150 (μM)” value was “** (** = 0.1 μM ≤ SC150 < 0.5 μM)”.

`CS(=O)(=O)c1ccc(NC(=O)NCc2ccc(-c3cc4c(NC5CCS(=O)(=O)CC5)cccc4n3CC(F)(F)F)cc2)cc1` [Compound 28A, 1-[(4-{4-[(1,1-dioxo-1λ^6-thian-4-yl)amino]-1-(2,2,2-trifluoroethyl)-1H-indol-2-yl}phenyl)methyl]-3-(4-methanesulfonylphenyl)urea]: where the note is “concentration to increase DNA binding by […], incubated at either 27° C. or 29° C. for 60 min”, the “SC150 (μM)” value is listed as “+ (+ = 0 μM ≤ SC150 < 2 μM)”.

With `Cc1cc(C(=O)NCc2nc(-c3cc4c(N[C@@H]5CCN(C)C[C@@H]5F)cccc4n3CC(F)(F)F)no2)cn1C` [Compound 219B, N-{[3-(4-{[(3S,4R)-3-fluoro-1-methylpiperidin-4-yl]amino}-1-(2,2,2-trifluoroethyl)-1H-indol-2-yl)-1,2,4-oxadiazol-5-yl]methyl}-1,5-dimethyl-1H-pyrrole-3-carboxamide], the “Y220C SC150 (μM)” value is “* (* = 0 μM ≤ SC150 < 0.1 μM)”.

Regarding `CN1CCC(Nc2cccc3c2cc(-c2noc(CNC(=O)c4ccc(F)cc4)n2)n3CC(F)(F)F)CC1` [Compound 150B, 4-fluoro-N-[(3-{4-[(1-methylpiperidin-4-yl)amino]-1-(2,2,2-trifluoroethyl)-1H-indol-2-yl}-1,2,4-oxadiazol-5-yl)methyl]benzamide], the “Y220C SC150 (μM)” value is “* (* = 0 μM ≤ SC150 < 0.1 μM)”.

For the compound `CN1CC[C@@H](Nc2cccc3c2cc(-c2noc(CNC(=O)c4ccn(C5(C)CC5)c4)n2)n3CC(F)(F)F)[C@@H](F)C1` [Compound 428B, N-{[3-(4-{[(3S,4R)-3-fluoro-1-methylpiperidin-4-yl]amino}-1-(2,2,2-trifluoroethyl)-1H-indol-2-yl)-1,2,4-oxadiazol-5-yl]methyl}-1-(1-methylcyclopropyl)-1H-pyrrole-3-carboxamide], the “Y220C SC150 (μM)” value is “* (* = 0 μM ≤ SC150 < 0.1 μM)”.

Turning to `COCC1(n2ccc(C(=O)NCc3nc(-c4cc5c(N[C@@H]6CCN(C)C[C@@H]6C)cccc5n4CC(F)(F)F)no3)c2)CC1` [Compound 504B, N-{[3-(4-{[(3S,4R)-1,3-dimethylpiperidin-4-yl]amino}-1-(2,2,2-trifluoroethyl)-1H-indol-2-yl)-1,2,4-oxadiazol-5-yl]methyl}-1-[1-(methoxymethyl)cyclopropyl]-1H-pyrrole-3-carboxamide], the “Y220C SC150 (μM)” value was “* (* = 0 μM ≤ SC150 < 0.1 μM)”.

Consider `CN1CC[C@@H](Nc2cccc3c2cc(-c2noc(CNc4nccc5sccc45)n2)n3CC(F)(F)F)[C@@H](F)C1` [Compound 457B, N-[(3S,4R)-3-fluoro-1-methylpiperidin-4-yl]-2-{5-[({thieno[3,2-c]pyridin-4-yl}amino)methyl]-1,2,4-oxadiazol-3-yl}-1-(2,2,2-trifluoroethyl)-1H-indol-4-amine], for which the “Y220C SC150 (μM)” value is on record as “* (* = 0 μM ≤ SC150 < 0.1 μM)”.

With `COc1cc(S(C)(=O)=O)ccc1NCc1nc(-c2cc3c(N[C@@H]4CCNC[C@@H]4F)cccc3n2CC(F)(F)F)no1` (racemic) [Compound 188B, (+/−)-N-[(3R,4S)-3-fluoropiperidin-4-yl]-2-(5-{[(4-methanesulfonyl-2-methoxyphenyl)amino]methyl}-1,2,4-oxadiazol-3-yl)-1-(2,2,2-trifluoroethyl)-1H-indol-4-amine], the “Y220C SC150 (μM)” value was “* (* = 0 μM ≤ SC150 < 0.1 μM)”.
